The values that follow are results of earlier work, collected in patent publication US20080311191A1, “Multi-Layer Tablets and Bioadhesive Dosage Forms” (priority 2004, published 2008).

Structures are written as SMILES. Read-outs that look alike come from different tables or passages of the source.

Test in series [1]: not given
The source holds these as a separate data set.

Turning to `CCC(C)n1ncn(-c2ccc(N3CCN(c4ccc(OCC5COC(Cn6cncn6)(c6ccc(Cl)cc6Cl)O5)cc4)CC3)cc2)c1=O` (stereo not shown) [Itraconazole, itraconazole], the GI permeability result is recorded as “good” and the water solubility entry is on record as “negligible”. The “solubility in water at pH<3.5” value (pH<3.5) is listed as “slightly soluble”.

With `Nc1nc2c(ncn2COCCO)c(=O)[nH]1` [Acyclovir, acyclovir], the water solubility result in series [1] was “moderate”.
